# From US20230212296A1, “SYSTEMS AND METHODS FOR TREATING CANCER” (Arizona Board of Regents on Behalf of the University of …, priority 2020, published 2023)
# Key:
# PIM1 [1] = biological target: T1, PIM1 (Homo sapiens, UniProt P11309); assay type: biochemical; design: Recombinant full-length GST-PIM1 was incubated with recombinant GST-HIF-1α; GST; details: in the presence of a PIM inhibitor (AZD1208 100 nM per method) (FIG. 4A)
# Description: In vitro: Recombinant full-length GST-PIM1 was incubated with recombinant GST-HIF-1α, GST (negative control), or dephosphorylated myelin basic protein (MBP) in the presence or absence of AZD1208 (100 nM) and ^32P-labeled ATP in kinase assay buffer (20 mM MOPS [pH 7.0] containing 100 mM NaCl, 10 mmol/L MgCl2, and 2 mmol/L dithiothreitol). Reactions were incubated at 37° C. for 60 min prior to the addition of 5× Laemmli sample buffer. Samples were separated by SDS-PAGE and gels were stained with Coomassie prior to autoradiography or preparation for mass spectrometry.
# HIF-1 = HIF-1 reporter (HRE-Luc) assay in Dox-PIM1 cells; assay type: cell-based; details: Dox 24 h, then AZD1208 for 4 h, normoxia (FIG. 3D)
# B24 and C34 tumors = test: B24 / C34 (HIF-1α T455D) xenografts in SCID mice; assay type: in vivo
# Description: (§1) FIG. 6: Five million parental, B24, or C34 SW620 cells in PBS were injected subcutaneously into the rear flanks of mice. Once the tumors reached a volume of approximately 100 mm^3, the mice were randomized for daily treatment with vehicle or AZD1208 (30 mg/kg/day, p.o.) for up to 2 weeks or until tumor burden reached a maximum volume of 2 cm^3. Tumors were measured every 2-3 days via caliper. Upon sacrifice, tumors were harvested for IHC staining with PIM1, HIF-1α, and CC3, and mRNA was collected for analysis.
# (§2) For both, the following formula was used to calculate tumor volume by caliper measurements:
# (§3) V=(tumor width)^2×tumor length/2.
# (§4) These lines were validated by Sanger sequencing.
# PIM1 [2] = biological target: T1, PIM1; assay type: biochemical; details: immunoprecipitated HA-HIF-1α, recombinant PIM1 (FIG. 4D)
# Description: In vivo: HA-HIF-1α or its mutant (T455A) were immunoprecipitated with anti-HA antibodies. Immune complexes were washed three times in lysis buffer, then washed twice in 1× kinase buffer and incubated with 0.1 μg of recombinant active PIM1 and 100 μmol/L of ATP for 30 min at 25° C. Reactions were stopped by washing twice in a cold kinase buffer and boiling in 2×SDS loading buffer. The sample was separated on a SDS-polyacrylamide gel and subjected to Western blot analysis with anti-phospho HIF-1α (T455) antibody.
# HIF-1α = test: Immunoblotting of HIF-1α and phospho-T455 in Dox-PIM1 PC3 cells; assay type: cell-based; details: Dox-PIM1 PC3, dox 24 h, AZD1208 3 μM for 6 h (FIG. 3C)
# B24 and C34 cell lines = test: MTT cell viability, HIF-1α T455D mutant SW620 lines B24 and C34; assay type: cell-based; details: B24 and C34, increasing doses, 24 h (FIG. 6B)
# Description: (§5) Response to drug: Twenty thousand cells were plated onto a 96-well plate and allowed to grow for 24 h prior to addition of the drug, and MTT assays were performed after 24 h incubation with the indicated drugs. For MTT assays, media was removed from the cells by aspiration and 50 μL serum-free DMEM and 50 μL MTT solution were added to each well, and plates were incubated for 4 h at 37° C. After incubation, 150 μL of DMSO was added to each well for 15 minutes and absorbance was read at 540 nm.
# SW620 tumors = test: SW620 xenograft in SCID mice; assay type: in vivo
# Description: as §1, §2, §3, §4
# HIF-1 target genes = test: Hypoxia-inducible gene expression (RT2 profiler array, qRT-PCR) in PC3 Dox-PIM1 cells; assay type: cell-based; details: eleven genes; Dox 24 h, ± AZD1208 for 8 h, normoxia (FIG. 3F)
# Description: Hypoxia-responsive gene expression was measured and quantified using RT^2 hypoxia-signaling PCR profiler arrays using the manufacturer's software (Qiagen). All other qRT-PCR reactions were performed using qPCRBIO SyGreen Blue Mix (PCR Biosystems), according to the manufacturer's protocol. Validated primer sets (QuantiTech primer assays; Qiagen) for each of the following genes were purchased to measure gene expression: VEGF-A, angiopoietin like 4 (ANGPTL4), and hexokinase 2 (HK2). HIF1α, PIM1 and Actin primers were purchased from IDT. Actin was used to normalize.
# SW620 cells = test: MTT cell viability, parental SW620 cells; assay type: cell-based; details: parental SW620, increasing doses, 24 h (FIG. 6B)
# Description: as §5
# T1 sequence (P11309 whole entry): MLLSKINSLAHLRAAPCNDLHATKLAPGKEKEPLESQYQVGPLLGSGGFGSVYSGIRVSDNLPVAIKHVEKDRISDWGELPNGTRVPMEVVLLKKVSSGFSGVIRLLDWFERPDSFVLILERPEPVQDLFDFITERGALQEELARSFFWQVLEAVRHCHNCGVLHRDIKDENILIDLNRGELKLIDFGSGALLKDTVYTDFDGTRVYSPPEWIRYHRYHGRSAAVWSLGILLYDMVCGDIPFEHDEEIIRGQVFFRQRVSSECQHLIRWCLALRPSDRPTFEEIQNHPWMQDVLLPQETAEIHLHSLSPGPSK
Molecule,"kinase assay on immunoprecipitated HA-HIF-1α, western blot with phospho-T455 antibody (HA-HIF-1α (wild-type))",in vitro kinase assay (32P-ATP autoradiography; mass spectrometry of phosphorylation sites) (recombinant GST-HIF-1α),phosphorylation of HIF-1α by PIM1 (autoradiography) (PIM1 [1]),PIM1-induced increase of HIF-1 activity (HRE-Luc normalized to Renilla-Luc) (HIF-1),"expression of HIF-1 target genes in tumor tissue (RT-PCR) (B24 and C34 tumors; B24 and C34 tumors, AZD1208 30 mg/kg (FIG. 6K))","HIF-1α levels in tumors (IHC) (B24 and C34 tumors; B24 or C34 tumors, AZD1208 30 mg/kg (FIG. 6I))","apoptosis (cleaved caspase-3 staining) (B24 and C34 tumors; B24 or C34 tumors, AZD1208 30 mg/kg (FIG. 6J))","tumor growth (B24 and C34 tumors; B24 or C34 xenografts, AZD1208 30 mg/kg/day p.o. (FIG. 6G))","tumor vasculature (H&E staining) (B24 and C34 tumors; C34 and B24 tumors, AZD1208 30 mg/kg (FIG. 6H))",phosphorylation of wild-type HIF-1α at Thr455 by PIM1 (PIM1 [2]),ability of PIM1 to increase HIF-1α protein levels (HIF-1α),"cell viability (MTT), sensitivity versus parental SW620 (B24 and C34 cell lines)","HIF-1α levels in tumors (IHC) (SW620 tumors; SW620 tumors, AZD1208 30 mg/kg (FIG. 6I))","apoptosis (cleaved caspase-3 staining) (SW620 tumors; SW620 tumors, AZD1208 30 mg/kg (FIG. 6J))","expression of pro-angiogenic genes VEGF-A and ANGPT4 in tumor tissue (RT-PCR) (SW620 tumors; SW620 tumors, AZD1208 30 mg/kg (FIG. 6K))","tumor volume (SW620 tumors; SW620 tumors, AZD1208 30 mg/kg/day p.o. (FIG. 6G))","tumor vasculature (H&E staining) (SW620 tumors; SW620 xenografts, AZD1208 30 mg/kg (FIG. 6H))",transcript levels of hypoxia-inducible genes upregulated at least 3-fold by PIM1 (HIF-1 target genes),cell viability (MTT) (SW620 cells)
recombinant full-length GST-PIM1,"Wild-type HIF-1α displayed robust phosphorylation at Thr455 by PIM1, which was blocked by AZD1208","Autoradiography revealed that PIM1 is able to phosphorylate HIF-1α, and phosphorylation was lost in the presence of a PIM inhibitor",–,–,–,–,–,–,–,–,–,–,–,–,–,–,–,–,–
N[C@@H]1CCCN(c2c(/C=C3\SC(=O)NC3=O)cccc2-c2ccccc2)C1 [AZD1208],–,–,phosphorylation was lost,reversed,no effect,refractory to PIM inhibition,no significant apoptosis was observed,unable to slow the growth,regular vasculature was observed,blocked,blocked the ability of PIM1 to increase HIF-1α protein levels,less sensitive,significantly reduced,increased,reduced,significantly reduced,disrupted tumor vasculature,significantly reduced,significant and dose-dependent reduction in viability
